Data as given in PubChem BioAssay AID328 (DTP/NCI, 2004).
“And” between values parts separate entries of the source, which are not always exact repeats. Identical values can stand only once. Inconclusive results and toxic doses are left out.

Test system: BDF1 mice, P388 leukemia ip, median survival T/C
Assay: NCI In Vivo Anticancer Drug Screen. Data for tumor model P388 Leukemia (intraperitoneal) in B6D2F1 (BDF1) mice
Conditions: endpoint: median survival time, higher = longer survival
Summary of the method: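 Vehicle-dosed animals serve as the reference; survival of compound-dosed, tumour-implanted mice is divided by it.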

[1] = dose: 100.0 mg/kg/injection, schedule: Q04DX003 (ip), vehicle: saline
[2] = dose: 200.0 mg/kg/injection, schedule: Q04DX003 (ip), vehicle: saline
[3] = dose: 100.0 mg/kg/injection, schedule: Q01DX009 (ip), vehicle: saline with Tween-80
[4] = dose: 200.0 mg/kg/injection, schedule: Q01DX009 (ip), vehicle: saline with Tween-80
[5] = dose: 100.0 mg/kg/injection, schedule: Q04DX003 (ip), vehicle: saline with Tween-80
[6] = dose: 200.0 mg/kg/injection, schedule: Q04DX003 (ip), vehicle: saline with Tween-80
[7] = dose: 12.5 mg/kg/injection, schedule: Q01DX009 (ip), vehicle: saline with Tween-80
[8] = dose: 25.0 mg/kg/injection, schedule: Q01DX009 (ip), vehicle: saline with Tween-80
[9] = dose: 50.0 mg/kg/injection, schedule: Q01DX009 (ip), vehicle: saline with Tween-80
[10] = dose: 50.0 mg/kg/injection, schedule: Q04DX003 (ip), vehicle: water
[11] = dose: 100.0 mg/kg/injection, schedule: Q04DX003 (ip), vehicle: water
[12] = dose: 200.0 mg/kg/injection, schedule: Q04DX003 (ip), vehicle: water
[13] = dose: 400.0 mg/kg/injection, schedule: Q04DX003 (ip), vehicle: water
[14] = dose: 6.25 mg/kg/injection, schedule: Q01DX009 (ip), vehicle: saline with Tween-80
[15] = dose: 50.0 mg/kg/injection, schedule: Q04DX003 (ip), vehicle: saline with Tween-80

With `N#Cc1sc2ccccc2c1CBr` the T/C (dose: 12.5 mg/kg/injection, schedule: Q01DX009 (ip), vehicle: Klucel (hydroxypropylcellulose) (HPC)) was 104 % of control, the T/C (dose: 18.75 mg/kg/injection, schedule: Q04DX003 (ip), vehicle: Klucel (hydroxypropylcellulose) (HPC)) was 108 % of control and the T/C (dose: 25.0 mg/kg/injection, schedule: Q01DX009 (ip), vehicle: Klucel (hydroxypropylcellulose) (HPC)) was 108 % of control. For the same compound, the T/C (dose: 37.5 mg/kg/injection, schedule: Q04DX003 (ip), vehicle: Klucel (hydroxypropylcellulose) (HPC)) was 108 % of control.
With `CCCCCn1c(Cl)c(/C=N\Nc2ccc([N+](=O)[O-])cc2[N+](=O)[O-])c2ccccc21` the T/C (dose: 100.0 mg/kg/injection, schedule: Q04DX002 (ip), vehicle: Klucel (hydroxypropylcellulose) (HPC)) was 88 % of control, the T/C (dose: 200.0 mg/kg/injection, schedule: Q04DX002 (ip), vehicle: Klucel (hydroxypropylcellulose) (HPC)) was 89 % of control and the T/C (dose: 400.0 mg/kg/injection, schedule: Q04DX002 (ip), vehicle: Klucel (hydroxypropylcellulose) (HPC)) was 90 % of control.
In the case of `COC(=O)c1ccc(SCCCN2CCOCC2)cc1`, the T/C [1] is reported as 90 % of control and the T/C [2] is reported as 113 % of control.
In the case of `CCOC(=O)C12CC=CC(CCC1)/C2=N\Nc1ccccc1` (configuration not stated), the T/C [3] is reported as 90 % of control, the T/C [4] is reported as 90 % of control and the T/C (dose: 400.0 mg/kg/injection, schedule: Q01DX009 (ip), vehicle: saline with Tween-80) is reported as 117 % of control.
For `COc1cc2ccnc(Cc3ccccc3)c2cc1OC`, the T/C [3] was 109 % of control, the T/C [5] was 109 % of control and the T/C [4] was 104 % of control. The T/C [6] was 109 % of control and the T/C (dose: 400.0 mg/kg/injection, schedule: Q04DX003 (ip), vehicle: saline with Tween-80) was 109 % of control.
`COC(=O)c1c(OC)ccc2c1CC1C3Nc4ccccc4C3CCN1C2` (configuration not stated) was tested, and the T/C (dose: 50.0 mg/kg/injection, schedule: Q04DX003 (ip), vehicle: saline sonified) was 100 % of control, the T/C (dose: 100.0 mg/kg/injection, schedule: Q04DX003 (ip), vehicle: saline sonified) was 100 % of control and the T/C (dose: 200.0 mg/kg/injection, schedule: Q04DX003 (ip), vehicle: saline sonified) was 100 % of control.
For `COC(OC)C1(O)CC(C(C)C)OC(=O)N1` (configuration not stated), the T/C (dose: 50.0 mg/kg/injection, schedule: Q04DX003 (ip), vehicle: saline) was 97 % of control and the T/C [1] was 105 % of control.
In the case of `CCC1/C=C/C=C/CC(C)C(O)C(C)(O)C(=O)C(C)C(O)C(C)C(=O)C(C)C(O)C(C)/C=C/C(=O)OC2C(C)C(CC1)OC1(OC(CC(C)O)C(C)CC1=O)C2C` (configuration not stated) (tested in a mixture with another compound), the T/C (dose: 0.15 mg/kg/injection, schedule: Q01DX010 (ip), vehicle: carboxymethylcellulose (CMC)) is reported as 110 % of control, the T/C (dose: 0.15 mg/kg/injection, schedule: Q01DX010 (ip), vehicle: saline) is reported as 109 % of control and the T/C (dose: 0.3 mg/kg/injection, schedule: Q01DX010 (ip), vehicle: carboxymethylcellulose (CMC)) is reported as 110 % of control. For the same compound, the T/C (dose: 0.3 mg/kg/injection, schedule: Q01DX010 (ip), vehicle: saline) was 150 % of control and 154 % of control, the T/C (dose: 0.6 mg/kg/injection, schedule: Q01DX010 (ip), vehicle: carboxymethylcellulose (CMC)) was 120 % of control and the T/C (dose: 0.6 mg/kg/injection, schedule: Q01DX010 (ip), vehicle: saline) was 154 % of control. For the same compound, the T/C (dose: 1.2 mg/kg/injection, schedule: Q01DX010 (ip), vehicle: carboxymethylcellulose (CMC)) was 190 % of control, the T/C (dose: 1.2 mg/kg/injection, schedule: Q01DX010 (ip), vehicle: saline) was 163 % of control and the T/C (dose: 2.5 mg/kg/injection, schedule: Q01DX009 (ip), vehicle: saline) was 154 % of control. For the same compound, the T/C (dose: 2.5 mg/kg/injection, schedule: Q01DX010 (ip), vehicle: saline) was 154 % of control, the T/C (dose: 5.0 mg/kg/injection, schedule: Q01DX009 (ip), vehicle: saline) was 163 % of control and the T/C (dose: 37.0 micrograms/kg/injection, schedule: Q01DX010 (ip), vehicle: saline) was 120 % of control. For the same compound, the T/C (dose: 150.0 micrograms/kg/injection, schedule: Q01DX010 (ip), vehicle: saline) was 150 % of control.
`CC(=O)OC1OC(COC(c2ccccc2)(c2ccccc2)c2ccccc2)C(OCc2ccccc2)C(OCc2ccccc2)C1OC(C)=O` (configuration not stated) was tested, and the T/C (dose: 21.9 mg/kg/injection, schedule: Q01DX009 (ip), vehicle: other) was 95 % of control, the T/C (dose: 43.8 mg/kg/injection, schedule: Q01DX009 (ip), vehicle: other) was 98 % of control and the T/C (dose: 87.5 mg/kg/injection, schedule: Q01DX009 (ip), vehicle: other) was 93 % of control. For the same compound, the T/C (dose: 175.0 mg/kg/injection, schedule: Q01DX009 (ip), vehicle: other) was 88 % of control and the T/C (dose: 350.0 mg/kg/injection, schedule: Q01DX009 (ip), vehicle: other) was 88 % of control.
For `O=C(Nc1ccc([N+](=O)[O-])cc1)OCC#CC#CCOC(=O)Nc1ccc([N+](=O)[O-])cc1`, the T/C (dose: 50.0 mg/kg/injection, schedule: Q01DX009 (ip), vehicle: Klucel (hydroxypropylcellulose) (HPC)) was 100 % of control and the T/C (dose: 100.0 mg/kg/injection, schedule: Q01DX009 (ip), vehicle: Klucel (hydroxypropylcellulose) (HPC)) was 100 % of control.
`Nc1ccc(CCc2ccccc2)cc1` was tested, and the T/C [7] was 122 % of control, the T/C [8] was 100 % of control and the T/C [9] was 109 % of control. For the same compound, the T/C (dose: 56.25 mg/kg/injection, schedule: Q04DX003 (ip), vehicle: saline with Tween-80) was 108 % of control, the T/C (dose: 75.0 mg/kg/injection, schedule: Q01DX009 (ip), vehicle: saline with Tween-80) was 118 % of control and the T/C (dose: 112.5 mg/kg/injection, schedule: Q04DX003 (ip), vehicle: saline with Tween-80) was 112 % of control.
`COc1ccc(OC)c(C(=O)C[n+]2ccccc2)c1` was tested, and the T/C [8] was 91 % of control and the T/C [9] was 91 % of control.
`Nc1nc([Se])c2ncn(C3OC(CO)C(O)C3O)c2n1` (configuration not stated) was tested, and the T/C (dose: 32.0 mg/kg/injection, schedule: Q01DX009 (ip), vehicle: saline) was 100 % of control.
For `BrCCC1(CCBr)CCCCC1`, the T/C (dose: 12.5 mg/kg/injection, schedule: Q01DX009 (ip), vehicle: water) was 113 % of control, the T/C (dose: 25.0 mg/kg/injection, schedule: Q01DX009 (ip), vehicle: water) was 97 % of control and the T/C (dose: 50.0 mg/kg/injection, schedule: Q01DX009 (ip), vehicle: water) was 96 % of control. For the same compound, the T/C [10] was 106 % of control, the T/C (dose: 100.0 mg/kg/injection, schedule: Q01DX009 (ip), vehicle: water) was 99 % of control and the T/C [11] was 111 % of control. For the same compound, the T/C (dose: 200.0 mg/kg/injection, schedule: Q01DX009 (ip), vehicle: water) was 108 % of control, the T/C [12] was 106 % of control and the T/C (dose: 300.0 mg/kg/injection, schedule: Q04DX003 (ip), vehicle: water) was 107 % of control. For the same compound, the T/C (dose: 400.0 mg/kg/injection, schedule: Q01DX009 (ip), vehicle: water) was 118 % of control, the T/C [13] was 122 % of control and the T/C (dose: 500.0 mg/kg/injection, schedule: Q04DX003 (ip), vehicle: water) was 109 % of control.
For `ClCc1ccncc1`, the T/C [1] was 100 % of control and the T/C [2] was 100 % of control.
For `C#CCOc1ccccc1/C(Cl)=N/Nc1ccc([N+](=O)[O-])cc1[N+](=O)[O-]`, the T/C (dose: 1.56 mg/kg/injection, schedule: Q01DX009 (ip), vehicle: saline with Tween-80) was 106 % of control, the T/C (dose: 3.12 mg/kg/injection, schedule: Q01DX009 (ip), vehicle: saline with Tween-80) was 97 % of control and the T/C [14] was 100 % of control.
In the case of `CCOC(=O)N/N=C\c1cc(OC)c(OC)c(OC)c1`, the T/C [14] is reported as 95 % of control, the T/C [7] is reported as 90 % of control and the T/C [8] is reported as 90 % of control. For the same compound, the T/C [9] was 90 % of control, the T/C [15] was 100 % of control and the T/C [5] was 108 % of control. The T/C [6] was 104 % of control.
With `O=C1c2ccccc2C(=O)N1CC(O)CCl` (configuration not stated) the T/C [9] was 104 % of control, the T/C [15] was 100 % of control and the T/C [3] was 112 % of control. The T/C [5] was 104 % of control, the T/C [4] was 88 % of control and the T/C [6] was 108 % of control.
`c1ccc2c(c1)cc1c3nnnn3ncn21` was tested, and the T/C [9] was 106 % of control, the T/C [3] was 104 % of control and the T/C [4] was 89 % of control.
For `COc1ccc2c(c1)C1CN(Cc3ccccc31)C2` (configuration not stated), the T/C (dose: 50.0 mg/kg/injection, schedule: Q01DX001 (ip), vehicle: saline with Tween-80) was 96 % of control, the T/C (dose: 100.0 mg/kg/injection, schedule: Q01DX001 (ip), vehicle: saline with Tween-80) was 99 % of control and the T/C (dose: 200.0 mg/kg/injection, schedule: Q01DX001 (ip), vehicle: saline with Tween-80) was 89 % of control.
`CNC(=O)c1n[nH]c(C)c1[N+](=O)[O-]` was tested, and the T/C (dose: 25.0 mg/kg/injection, schedule: Q04DX003 (ip), vehicle: water) was 101 % of control, the T/C [10] was 106 % of control and the T/C [11] was 114 % of control. For the same compound, the T/C [12] was 97 % of control and the T/C [13] was 87 % of control.
